Results on 30 compounds are retold here after patent publication US7605272B2, “IGF-1R inhibitor” (Kyowa Hakko Kirin Co., Ltd., priority 2005, dated 2009).

The inhibition is the relative decrease from the control value, in per cent.

Molecules are shown by their SMILES.

For this assay, the target named is T1, IGF-1R (Homo sapiens, UniProt P08069).
T1 construct: purchased Upstate Co. 14-465
T1 sequence (P08069 959-1367 limits assumed): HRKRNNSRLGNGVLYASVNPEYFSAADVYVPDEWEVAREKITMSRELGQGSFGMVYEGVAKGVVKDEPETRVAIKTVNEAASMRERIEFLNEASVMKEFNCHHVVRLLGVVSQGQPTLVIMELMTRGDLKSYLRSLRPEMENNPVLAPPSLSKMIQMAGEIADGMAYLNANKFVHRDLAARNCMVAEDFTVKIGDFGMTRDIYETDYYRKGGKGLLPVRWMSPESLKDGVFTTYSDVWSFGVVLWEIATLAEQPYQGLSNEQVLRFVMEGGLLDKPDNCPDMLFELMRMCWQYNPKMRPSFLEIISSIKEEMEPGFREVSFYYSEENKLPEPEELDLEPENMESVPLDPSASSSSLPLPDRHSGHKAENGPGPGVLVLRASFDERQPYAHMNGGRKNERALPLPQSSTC
In words: IGF-1R inhibitory activity (kinase reaction, time-resolved fluoroimmunoassay). Type of assay: biochemical. To be noted: IGF-1R active recombinant enzyme, test compound 10 μmol/L. The method, then: The IGF-1R inhibitory activity was measured in the following manner.
As IGF-1R, active recombinant enzyme (Catalog No. 14-465) purchased from Upstate Co., was used. To 96 well plate (FIA-PLATE BLACK 96 well FALT-BOTTOM HIGH BINDING, Greiner Bio-one, Catalog No. 655077) coated with NeutroAvidin (Pierce, Catalog No. 31000), biotinylated polyglutamic acid-tyrosine peptide (Nihon Schering K.K., Catalog No. 61GT0BAA) was immobilized and then blocked with 0.25% gelatin to be used as a plate for measuring the kinase reaction. Separately was prepared a solution containing at final concentrations, IGF-1R (200 μg/L), Tris.HCl(pH 7.5)(20 mmol/L), Na3VO4(0.1 mmol/L), MgCl2(1 mmol/L), MnCl2(10 mmol/L), ATP(10 mmol/L), 2-mercaptoethanol (0.04%), BSA(Bovine Serum Albumin) (0.1%), DMSO(0.1%), test compound (10 μmol/L). The solution (each 50 μL) was added to the well of the plate for measuring the kinase reaction and then, enzyme reaction was performed for 30 minutes at 24° C. The plate was washed with TBS-T [10 mmol/L Tris Cl (pH 7.5), 150 mmol/L NaCl, 0.05% Tween 20 (Bio-Rad, Catalog No. 170-6531)] 4 times, then reacted with europium-labeled anti-phosphotyrosine antibody, further washed with TBS-T 4 times and then, measured with time-resolved fluoroimmunoassay (excitation wavelength 340 nm, measuring wavelength 615 nm). The value of a well to which the test compound had not been added was considered as 100% and that of a well where the enzyme and the test compound had not been added was considered as 0%. The relative activity (%) of the well which was added with enzyme and the test compound was measured and by subtracting the calculated value from 100, IGF-1R inhibitory activity of the test compound (%) was determined.
On to `C(=Cc1n[nH]c2ccccc12)c1ccccc1Nc1cnccn1` [Compound 155, N-{2-[2-(1H-indazol-3-yl)vinyl]phenyl}-2-pyrazylamine], for which the “inhibitory activity (%) at 10 μmol/L” value was 97.9%.

In the case of `Cc1cc(C(=O)Nc2ccccc2/C=C/c2n[nH]c3ccccc23)ccc1[N+](=O)[O-]` [Compound 157, (E)-N-{2-[2-(1H-indazol-3-yl)vinyl]phenyl}-3-methyl-4-nitrobenzamide], the inhibition at 10 µM came to 96%.

`Cc1ccsc1/C=N/c1ccccc1C=Cc1n[nH]c2ccccc12` [Compound 160, (E)-N-{2-[2-(1H-indazol-3-yl)vinyl]phenyl}(3-methylthiophen-2-ylmethylene)amine]: the inhibition at 10 µM turned out to be 98.4%.

For `C(=C\c1n[nH]c2ccccc12)/c1ccccc1-n1cccc1` [Compound 162, (E)-3-{2-[2-(pyrrol-1-yl)phenyl]vinyl}-1H-indazole], the inhibition at 10 µM is 102%.

Consider `C(=C\c1n[nH]c2ccccc12)/c1ccccc1Nc1ncccn1` [Compound 163, (E)-N-{2-[2-(1H-indazol-3-yl)vinyl]phenyl}-2-pyrimidylamine], for which the inhibition at 10 µM came out at 100%.

Turning to `C(=C\c1n[nH]c2ccccc12)/c1ccccc1Nc1ccccn1` [Compound 164, (E)-N-{2-[2-(1H-indazol-3-yl)vinyl]phenyl}-2-pyridylamine], the inhibition at 10 µM was found to be 99.1%.

For the compound `CCOC(=O)c1cnc(Nc2ccccc2/C=C/c2n[nH]c3ccccc23)s1` [Compound 165, (E)-2-{2-[2-(1H-indazol-3-yl)vinyl]phenylamino}thiazole-5-carboxylic acid ethylester], the inhibition at 10 µM was 93.8%.

With `O=Cc1ccn(-c2ccccc2/C=C/c2n[nH]c3ccccc23)c1` [Compound 167, (E)-1-{2-[2-(1H-indazol-3-yl)vinyl]phenyl}-1H-pyrrole-3-carbaldehyde], the inhibition at 10 µM came to 94.1%.

As to `CCOC(=O)c1csc(Nc2ccccc2/C=C/c2n[nH]c3ccccc23)n1` [Compound 169, (E)-2-{2-[2-(1H-indazol-3-yl)vinyl]phenylamino}thiazole-4-carboxylic acid ethyl ester], the inhibition at 10 µM was 88.4%.

`O=C(O)c1csc(Nc2ccccc2/C=C/c2n[nH]c3ccccc23)n1` [Compound 170, (E)-2-{2-[2-(1H-indazol-3-yl)vinyl]phenylamino}thiazole-4-carboxylic acid]: the inhibition at 10 µM came to 69.8%.

As to `O=C(c1cnc(Nc2ccccc2/C=C/c2n[nH]c3ccccc23)s1)N1CCC(O)CC1` [Compound 171, (E)-4-hydroxy-1-{2-[2-(2-(1H-indazol-3-yl)vinyl)phenylamino]thiazole-5-ylcarbonyl}piperidine], the inhibition at 10 µM was 87.2%.

`OCc1csc(Nc2ccccc2/C=C/c2n[nH]c3ccccc23)n1` [Compound 173, (E)-2-{2-[2-(1H-indazol-3-yl)vinyl]phenylamino}thiazole-4-methanol]: the inhibition at 10 µM stood at 97.8%.

As for `CN(C)C(=O)c1nc(-c2ccccc2/C=C/c2n[nH]c3ccccc23)no1` [Compound 176, (E)-N,N-dimethyl-3-{2-[2-(1H-indazol-3-yl)vinyl]phenyl}[1,2,4]oxadiazole-5-carboxamide], the inhibition at 10 µM is 100%.

`CNC(=O)c1nc(-c2ccccc2/C=C/c2n[nH]c3ccccc23)no1` [Compound 177, (E)-3-{2-[2-(1H-indazol-3-yl)vinyl]phenyl}-N-methyl[1,2,4]oxadiazole-5-carboxamide]: the inhibition at 10 µM is 99.4%.

`O=c1[nH]c(-c2ccccc2/C=C/c2n[nH]c3ccccc23)no1` [Compound 178, (E)-3-{2-[2-(1H-indazol-3-yl)vinyl]phenyl}-4H-[1,2,4]oxadiazole-5-one]: the inhibition at 10 µM is 71.1%.

As to `OCc1nc(-c2ccccc2/C=C/c2n[nH]c3ccccc23)no1` [Compound 179, (E)-3-{2-[2-(1H-indazol-3-yl)vinyl]phenyl}[1,2,4]oxadiazol-5-ylmethanol], the inhibition at 10 µM is 99.6%.

For `OCCCc1nc(-c2ccccc2/C=C/c2n[nH]c3ccccc23)no1` [Compound 180, (E)-3-(3-{2-[2-(1H-indazol-3-yl)vinyl]phenyl}[1,2,4]oxadiazol-5-yl)propan-1-ol], the inhibition at 10 µM is 98.1%.

As for `OCCc1nc(-c2ccccc2/C=C/c2n[nH]c3ccccc23)no1` [Compound 181, (E)-2-{3-{2-[2-(1H-indazol-3-yl)vinyl]phenyl}[1,2,4]oxadiazol-5-yl}ethanol], the inhibition at 10 µM worked out at 98.9%.

For `C(=C\c1n[nH]c2ccccc12)/c1ccccc1-n1ccc(CN2CCOCC2)c1` [Compound 182, (E)-3-{2-[2-(3-morpholin-4-ylmethylpyrrol-1-yl)phenyl]vinyl}-1H-indazole], the inhibition at 10 µM stood at 97.9%.

As for `C(=C\c1n[nH]c2ccccc12)/c1ccccc1-c1nc2ccccc2o1` [Compound 183, (E)-2-{2-[2-(1H-indazol-3-yl)vinyl]phenyl}benzoxazole], the inhibition at 10 µM was 59.1%.

For the compound `Nc1ccc2oc(-c3ccccc3/C=C/c3n[nH]c4ccccc34)nc2c1` [Compound 185, (E)-2-{2-[2-(1H-indazol-3-yl)vinyl]phenyl}benzoxazol-5-ylamine], the inhibition at 10 µM amounted to 93.2%.

`CN(C)CCNCc1ccn(-c2ccccc2/C=C/c2n[nH]c3ccccc23)c1` [Compound 186, (E)-N′-(1-{2-[2-(1H-indazol-3-yl)vinyl]phenyl}-1H-pyrrol-3-ylmethyl)-N,N-dimethylethane-1,2-diamine]: the inhibition at 10 µM was 102%.

Regarding `OCCNCc1ccn(-c2ccccc2/C=C/c2n[nH]c3ccccc23)c1` [Compound 187, (E)-2-(1-{2-[2-(1H-indazol-3-yl)vinyl]phenyl}-1H-pyrrol-3-ylmethylamino)ethanol], the inhibition at 10 µM came to 98.2%.

With `CN(C)CCN(C)Cc1ccn(-c2ccccc2/C=C/c2n[nH]c3ccccc23)c1` [Compound 188, (E)-N-(1-{2-[2-(1H-indazol-3-yl)vinyl]phenyl}-1H-pyrrol-3-ylmethyl)-N,N′,N′-trimethylethane-1,2-diamine], the inhibition at 10 µM was found to be 99.4%.

`C(=C\c1n[nH]c2ccccc12)/c1ccccc1-n1ccc(CNCC2CC2)c1` [Compound 189, (E)-3-cyclopropylmethylaminomethyl-1-{2-[2-(1H-indazol-3-yl)vinyl]phenyl}pyrrole]: the inhibition at 10 µM came to 102%.

Regarding `Cc1ccc(C)n1-c1ccccc1/C=C/c1n[nH]c2ccccc12` [Compound 190], the “inhibitory activity (%) at 10 μmol/L” value came out at 96.9%.

For the compound `Cc1cc(CO)c(C)n1-c1ccccc1/C=C/c1n[nH]c2ccccc12` [Compound 191, (E)-1-{2-[2-(1H-indazol-3-yl)vinyl]phenyl}-2,5-dimethyl-1H-pyrrol-3-ylmethanol], the inhibition at 10 µM stood at 102%.

As for `O=C1c2ccc([N+](=O)[O-])cc2C(=O)N1c1ccccc1/C=C/c1n[nH]c2ccccc12` [Compound 192, (E)-2-{2-[2-(1H-indazol-3-yl)vinyl]phenyl}-5-nitroisoindole-1,3-dione], the inhibition at 10 µM was determined as 92.3%.

In the case of `O=C1c2ccc(Cl)cc2C(=O)N1c1ccccc1/C=C/c1n[nH]c2ccccc12` [Compound 196, (E)-5-chloro-2-{2-[2-(1H-indazol-3-yl)vinyl]phenyl}isoindole-1,3-dione], the inhibition at 10 µM was 99.8%.

As to `Cc1ccc2c(c1)C(=O)N(c1ccccc1/C=C/c1n[nH]c3ccccc13)C2=O` [Compound 197, (E)-2-{2-[2-(1H-indazol-3-yl)vinyl]phenyl}-5-methylisoindole-1,3-dione], the inhibition at 10 µM was determined as 101%.
